The results in this text go back to patent publication US20250339462A1, “CANCER TREATMENT USING ULTRA-HIGH CONCENTRATION GASEOUS NITRIC OXIDE AND A CHECKPOINT INHIBITOR” (Beyond Air, Inc., priority 2022, published 2025).

In the test the test system is 4T1 tumor-bearing mice. The test is described as follows: 4T1 breast cancer model, UNO/Anti-PD-1 Single Dose Study. The following applies: single-dose of UNO alone 50,000 ppm 10 min (FIG. 12A). It counts as in vivo, mouse. On the procedure: Preparation of 4T1 cells: Cancer cell suspension, in Hanks' Balanced Salt Solution (HBSS) (Biological Industries, Israel), at a concentration of 5.0×10^6 cells/ml was freshly prepared on the day of the cancer model induction. Cells were grown to a 70-80% confluency and harvested using trypsin. The cells were centrifuged at 1,200 revolutions per minute (rpm)—241 G for 8 minutes, then the pellet was re-suspended in 1 ml of HBSS. The cells were counted using an automated cell counter and a suspension with a concentration of 5.0×10^6 cells/ml was prepared. Cell viability must be above 90% before cell inoculation to the mice, otherwise new cells will need to be prepared. […]
UNO and N2 treatment—On the day of treatment, mice were anesthetized by an intraperitoneal (i.p.) injection of 100 mg/kg of ketamine and 10 mg/kg of xylazine hydrochloride solution. […] After treatment, all mice were warmed and closely monitored until complete recovery was observed. […]
Anti-mPD-1 dosing started one day after UNO treatment. […] The primary tumor volume was assessed using a digital caliper using a standard formula. In addition, mice survival was evaluated. Mice were routinely weighed and monitored for health conditions using mouse distress scoring. Mice reaching a tumor volume of ≥1500 mm3 and/or a score of 12 were humanely euthanized, and the time of death was recorded.

For the compound `[N]=O` [UNO, nitric oxide], the “Primary tumors smaller compared to anti-mPD-1 alone” value was 13.2%.
